Source: PMC6330446, “An integrated characterization of contractile, electrophysiological, and structural cardiotoxicity of Sophora tonkinensis Gapnep. in human pluripotent stem cell-derived cardiomyocytes” (Stem Cell Research & Therapy, 2019)
“Also recorded” adds a separate entry of the source.

Assays:
hiPSC-CMs [1] = details: hiPSC-CMs; alkaloids 2, 10, 50 μM, aconitine 1 μM; 24 h
Method: (§1) After plating for about 3 days, CMs matured and began to beat. At this time, different compounds were added, and experiments were performed 24 h after treatment. The experiments were grouped as follows: control group (normal medium); matrine, oxymatrine, sophocarpine, and cytisine treatment (2, 10, 50 μM) groups; and aconitine treatment (1 μM) group. The doses of toxicity studies above were determined by the effective therapeutic doses reported and included or exceeded the therapeutic dose.
CMs were incubated in 10% CCK-8 (Dojindo, Kumamoto, Japan) that was diluted in normal culture medium at 37 °C until a visual color conversion occurred. The absorbance of each well was measured using a microplate reader (Spectrafluor, TECAN, Sunrise, Austria) at 450 nm. Three individual experiments were performed. All samples were operated in duplicate.
A 96-well plate was used to seed hiPSC-CMs at a concentration of 5 × 10^4 cells per well. The cultured cells were treated with different concentrations of compounds and were incubated for another 48 h. CMs were digested with trypsin, and a small amount of cell suspension was added into the same amount of trypan blue solution. Countstar Automated Cell Counter IC1000 (Elite Life Sciences, Shanghai, China) was used to count the number of total and living cells. Data were presented as the mean ± SEM, n ≥ 3.

hiPSC-CMs [2] = details: hiPSC-CMs; alkaloids 2, 10, 50 μM, aconitine 1 μM
Method: as §1
Cell treatment method was the same as above. After reaching the predetermined time, 120 μl of the supernatant of each well was taken for measuring LDH leakage using a commercially available kit (Beyotime Biotechnology, Shanghai, China) following the manufacturer’s instructions. Data were presented as the mean ± SEM, n ≥ 3.

hiPSC-CMs [3] = experiment: CK-MB and cardiac troponin I ELISA assay; type: cell-based, human; details: alkaloids 2, 10, 50 μM, aconitine 1 μM
Method: as §1
Cell treatment method was the same as above. After the administration, the cells were digested and then destroyed by repeated freeze-thaw and sonication to release the components in the cells. Centrifuged at 2500 rpm for 20 min, the supernatant was collected for the detection of creatine kinase MB isoenzyme (CK-MB) and cardiac troponin I (CTn-I) ELISA kit (Expandbiotech, Beijing, China) following the manufacturer’s instructions. Data were presented as the mean ± SEM, n ≥ 3.

hiPSC-CMs [4] = type: cell-based, human; details: hiPSC-CMs; high dose of alkaloids (50 μM), aconitine 1 μM
Method: Cells were incubated in a maintaining medium containing 10 μM DCFH-DA (Beyotime Biotechnology, Shanghai, China) for 30 min at 37 °C in the dark. The measurement of ROS was performed with IncuCyte™ S3 ZOOM cell imaging system (Essen BioScience, Ann Arbor, MI). TissueQuest 6.0 was used for the quantitative analysis of ROS formation. Data were presented as the mean ± SEM, n ≥ 3.

GCaMP hESC-CMs = type: cell-based, human; details: GCaMP hESC-CMs; high dose of alkaloids (50 μM), aconitine 1 μM
Method: The hESC-CMs in this experiment can express the GCaMP reporter gene by gene editing, and green fluorescence marker can be observed by a fluorescence microscope. The fluorescence intensity is proportional to Ca^2+ concentration. The CMs were seeded into 96-well plates at 5000/well and were administered the same as above. The fluorescence intensities of hESC-CMs were monitored using an IncuCyte™ S3 ZOOM cell imaging system (Essen BioScience, Ann Arbor, MI). Data were presented as the mean ± SEM, n ≥ 3.

hiPSC-CMs [5] = experiment: TUNEL staining (apoptosis); type: cell-based, human; details: high dose of alkaloids, aconitine
Method: Supplementary file 13287_2018_1126_MOESM1_ESM.tif: Additional file 1: Figure S1. Effect of matrine, oxymatrine, cytisine, and sophocarpine on TUNEL staining in hiPSC-CMs. After treatment with matrine, oxymatrine, cytisine, and sophocarpine, the images of TUNEL fluorescence and bright field were acquired intuitively using IncuCyte™ S3 ZOOM cell imaging system and the fluorescence intensity was analyzed quantitatively using TissueQuest 6.0. […] The scale bar is 400 μm. Data are presented as the mean ± SEM, n ≥ 3. […] vs the control group. (TIF 23588 kb)

For `CCN1C[C@]2(COC)[C@H](O)C[C@H](OC)[C@@]34[C@@H]5C[C@@]6(O)[C@H](OC(=O)c7ccccc7)[C@@H]5[C@@](OC(C)=O)([C@@H]([C@H](OC)[C@H]23)[C@@H]14)[C@@H](O)[C@@H]6OC` [aconitine, reference compound], which “Cell viability (in words)” value (hiPSC-CMs [1]) is on record?
Its value is “showed a great significance”.

What about the “LDH level in the supernatant (in words)” value (hiPSC-CMs [2]) of the same compound?
Its value is “induced a large amount; also recorded: increased immensely”.

And the “CK-MB level (in words)” value (hiPSC-CMs [3])?
The value was “induced a large amount; also recorded: increased immensely”.

What about the “CTnI level (in words)” value (hiPSC-CMs [3]) of the same compound?
The value was “induced a large amount”.

And the “ROS fluorescence / ROS production (in words)” value (hiPSC-CMs [4])?
The value was “induced excessive ROS production”.

What about the “Fluorescence intensity of calcium, [Ca^2+]i (in words)” value (GCaMP hESC-CMs) of the same compound?
The value was “increased drastically”.

What about the “TUNEL fluorescence staining (in words)” value (hiPSC-CMs [5]) of the same compound?
The value was “huge increase”.
